Laboratory results: publication PMC6028563, “Probing Substituents in the 1- and 3-Position: Tetrahydropyrazino-Annelated Water-Soluble Xanthine Derivatives as Multi-Target Drugs With Potent Adenosine Receptor Antagonistic Activity” (Frontiers in Chemistry, 2018)
Where two headings read alike, the source gives them in different places.

Assays:
human A2A AR [1] = target: T1, human A2A AR (Homo sapiens, UniProt P29274); conditions: human (h); Figure 3 and introduction; ref Drabczynska et al., 2007; Koch et al., 2013; Brunschweiger et al., 2014, 2016; cited from earlier work
T1 construct: expressed in transfected cells; host or cells: CHO cells

human A1 AR [2] = target: T2, human A1 AR (Homo sapiens, UniProt P30542); conditions: human (h); Figure 3 and introduction; ref Drabczynska et al., 2007; Koch et al., 2013; Brunschweiger et al., 2014, 2016; read-out: A1 (Ki); cited from earlier work
T2 construct: expressed in transfected cells; host or cells: CHO cells
T2 sequence (P30542 1-326): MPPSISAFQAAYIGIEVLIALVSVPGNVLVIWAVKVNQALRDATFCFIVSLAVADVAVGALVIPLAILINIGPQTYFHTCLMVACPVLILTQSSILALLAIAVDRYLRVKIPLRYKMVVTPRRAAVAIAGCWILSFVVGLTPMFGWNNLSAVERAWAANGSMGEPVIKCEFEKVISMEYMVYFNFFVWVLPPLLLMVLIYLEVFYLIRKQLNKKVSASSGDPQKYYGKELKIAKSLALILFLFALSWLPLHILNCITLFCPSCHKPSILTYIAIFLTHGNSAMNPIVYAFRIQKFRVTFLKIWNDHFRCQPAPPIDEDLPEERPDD

recombinant human MAO-B = target: T3, recombinant human MAO-B (Homo sapiens, UniProt P27338); assay: Monoamine oxidase assay (Amplex Red), MAO-B; assay type: biochemical
T3 construct: purchased Sigma-Aldrich M7441; host or cells: baculovirus-infected insect cells
T3 sequence (P27338 1-520): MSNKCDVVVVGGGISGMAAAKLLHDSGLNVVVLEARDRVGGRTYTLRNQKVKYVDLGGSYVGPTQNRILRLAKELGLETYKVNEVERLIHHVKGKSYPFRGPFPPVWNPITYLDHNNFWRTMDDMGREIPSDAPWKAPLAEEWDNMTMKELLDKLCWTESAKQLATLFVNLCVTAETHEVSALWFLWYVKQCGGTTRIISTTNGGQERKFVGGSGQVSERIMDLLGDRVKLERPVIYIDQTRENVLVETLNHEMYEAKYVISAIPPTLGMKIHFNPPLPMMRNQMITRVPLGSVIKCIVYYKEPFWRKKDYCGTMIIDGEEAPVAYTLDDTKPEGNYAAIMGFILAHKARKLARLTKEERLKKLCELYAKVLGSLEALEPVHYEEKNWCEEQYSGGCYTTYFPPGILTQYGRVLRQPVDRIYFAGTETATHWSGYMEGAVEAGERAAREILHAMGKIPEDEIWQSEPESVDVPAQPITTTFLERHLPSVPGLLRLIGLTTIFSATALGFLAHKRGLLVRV
How it was run: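 Inhibition was measured with an Amplex Red monoamine oxidase assay, using human MAO-A and MAO-B produced recombinantly in baculovirus-infected insect cells. For rat MAO-B, liver mitochondria-enriched fractions from male Sprague Dawley rats served as enzyme source.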

human A1 AR [3] = target: T2, human A1 AR; assay: Radioligand binding assay at human A1 AR vs. [^3H]CCPA; conditions: human (h); CHO cell membranes; n = 3
How it was run: (§1)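 Competition binding; rat A1: brain cortex membranes; rat A2A: brain striatum membranes; human A1/A2A/A2B/A3: membranes from CHO cells each expressing one human subtype. Affinity only, no functional testing.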

rat A1 AR = target: T4, rat A1 AR (Rattus norvegicus, UniProt P25099); assay: Radioligand binding assay at rat A1 AR (rat brain cortex) vs. [^3H]CCPA; conditions: rat (r); rat brain cortex; n = 3
T4 construct: A1 ARs of rat brain cortical membrane; from tissue; host or cells: rat brain cortex membranes
T4 sequence (P25099 1-326): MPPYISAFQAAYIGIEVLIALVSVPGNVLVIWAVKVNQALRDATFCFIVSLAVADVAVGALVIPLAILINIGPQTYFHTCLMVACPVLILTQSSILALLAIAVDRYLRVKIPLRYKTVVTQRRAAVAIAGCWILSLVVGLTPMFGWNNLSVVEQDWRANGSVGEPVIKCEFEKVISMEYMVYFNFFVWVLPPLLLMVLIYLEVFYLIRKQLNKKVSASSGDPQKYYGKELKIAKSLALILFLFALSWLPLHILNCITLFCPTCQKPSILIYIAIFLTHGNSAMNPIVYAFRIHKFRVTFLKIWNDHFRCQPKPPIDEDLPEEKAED
How it was run: as §1

human A2B AR = target: T5, human A2B AR (Homo sapiens, UniProt P29275); assay: Radioligand binding assay at human A2B AR vs. [^3H]PSB-603; conditions: at 10,000 nM, read-out: % inhibition of radioligand binding at indicated concentration, A2B vs. [^3H]PSB-603
T5 construct: expressed in transfected cells; host or cells: CHO cells
T5 sequence (P29275 1-332): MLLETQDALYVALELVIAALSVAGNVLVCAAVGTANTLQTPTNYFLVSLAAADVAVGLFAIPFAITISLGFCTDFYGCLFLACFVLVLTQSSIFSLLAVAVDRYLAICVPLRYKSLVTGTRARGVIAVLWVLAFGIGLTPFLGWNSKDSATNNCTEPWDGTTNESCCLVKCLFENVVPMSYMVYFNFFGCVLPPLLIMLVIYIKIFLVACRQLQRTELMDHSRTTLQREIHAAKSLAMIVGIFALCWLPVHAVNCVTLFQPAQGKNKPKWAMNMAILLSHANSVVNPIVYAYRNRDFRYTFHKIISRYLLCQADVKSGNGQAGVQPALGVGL
How it was run: as §1

rat A2A AR = target: T6, rat A2A AR (Rattus norvegicus, UniProt P30543); assay: Radioligand binding assay at rat A2A AR (rat brain striatum) vs. [^3H]MSX-2; conditions: rat (r)
T6 construct: A2A ARs of rat brain striatal membrane preparations; from tissue; host or cells: rat brain striatum membranes
How it was run: as §1

recombinant human MAO-A = target: T7, recombinant human MAO-A (Homo sapiens, UniProt P21397); assay: Monoamine oxidase assay (Amplex Red), MAO-A; assay type: biochemical
T7 construct: purchased Sigma-Aldrich M7316; host or cells: baculovirus-infected insect cells
T7 sequence (P21397 1-527): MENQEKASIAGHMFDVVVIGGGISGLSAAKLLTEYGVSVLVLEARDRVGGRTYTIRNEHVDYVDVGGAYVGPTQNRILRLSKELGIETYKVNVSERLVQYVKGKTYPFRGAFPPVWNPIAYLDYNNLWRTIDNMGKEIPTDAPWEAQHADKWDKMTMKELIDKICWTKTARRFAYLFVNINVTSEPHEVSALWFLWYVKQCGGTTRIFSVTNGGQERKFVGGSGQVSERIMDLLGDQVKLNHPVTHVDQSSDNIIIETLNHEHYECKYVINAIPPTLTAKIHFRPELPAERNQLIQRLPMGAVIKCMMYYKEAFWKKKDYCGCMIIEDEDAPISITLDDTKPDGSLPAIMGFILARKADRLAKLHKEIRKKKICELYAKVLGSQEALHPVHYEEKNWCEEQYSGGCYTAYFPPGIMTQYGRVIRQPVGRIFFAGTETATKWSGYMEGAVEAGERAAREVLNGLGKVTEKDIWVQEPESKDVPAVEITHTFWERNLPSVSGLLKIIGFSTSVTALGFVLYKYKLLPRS
Description: The determination of MAO-A and MAO-B inhibition was performed using commercially available recombinant human MAO-A and MAO-B enzymes expressed in baculovirus-infected insects sells (Sigma-Aldrich, M7316 and M7441) applying the commercially available Amplex® Red monoamine oxidase assay kit (Invitrogen A12214). The assays were performed as previously described. The determination of rat MAO-B inhibition was performed using mitochondrial-enriched fractions from male Sprague Dawley rat livers. […]

human A2A AR [4] = target: T1, human A2A AR; assay: Radioligand binding assay at human A2A AR vs. [^3H]MSX-2; conditions: at 1,000 nM
Description: Membrane preparations and radioligand binding assays at rat A1 (rat brain cortex) and rat A2A ARs (rat brain striatum) were performed as previously described (Ozola et al., [2003]; Alnouri et al., [2015]). For assays at human A1, A2A, A2B, and A3 ARs, CHO cell membranes expressing one of the human AR subtypes were used as previously reported (Klotz et al., [1998]; Alnouri et al., [2015]; De Filippo et al., [2016]).
The synthesized tetrahydropyrazino[2,1-f ]purinediones 13–20 were evaluated in radioligand binding assays for their affinity to A1 ARs of rat brain cortical membrane and to A2A ARs of rat brain striatal membrane preparations. Selected compounds were further investigated for their affinity to human A1 and A2A ARs recombinantly expressed in Chinese hamster ovary (CHO) cells. All compounds were additionally investigated for their affinity to human A2B and A3 ARs recombinantly expressed in CHO cells to determine their AR subtype selectivity. […] It is well known that all xanthine derivatives lacking a ribose moiety, including tricyclic compounds, can only block ARs, but never act as AR agonists; therefore, additional functional studies were not required. […] Potent MAO-B inhibitors were additionally investigated for inhibition of human MAO-A to assess their selectivity. Results are presented in Tables 1–6, and data of standard ligands are included for comparison.

T1 sequence (P29274 whole entry): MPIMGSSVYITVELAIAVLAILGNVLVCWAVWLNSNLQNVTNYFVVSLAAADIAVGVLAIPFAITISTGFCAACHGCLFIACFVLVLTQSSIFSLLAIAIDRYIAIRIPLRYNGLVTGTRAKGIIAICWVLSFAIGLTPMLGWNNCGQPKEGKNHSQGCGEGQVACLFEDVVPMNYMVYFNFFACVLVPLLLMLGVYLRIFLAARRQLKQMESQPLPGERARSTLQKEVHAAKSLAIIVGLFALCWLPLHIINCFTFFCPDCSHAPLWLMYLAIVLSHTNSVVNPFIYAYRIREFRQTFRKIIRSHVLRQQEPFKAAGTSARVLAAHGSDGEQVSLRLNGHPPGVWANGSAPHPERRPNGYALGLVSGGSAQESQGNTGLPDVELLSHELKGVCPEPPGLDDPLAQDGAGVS
T6 sequence (P30543 whole entry): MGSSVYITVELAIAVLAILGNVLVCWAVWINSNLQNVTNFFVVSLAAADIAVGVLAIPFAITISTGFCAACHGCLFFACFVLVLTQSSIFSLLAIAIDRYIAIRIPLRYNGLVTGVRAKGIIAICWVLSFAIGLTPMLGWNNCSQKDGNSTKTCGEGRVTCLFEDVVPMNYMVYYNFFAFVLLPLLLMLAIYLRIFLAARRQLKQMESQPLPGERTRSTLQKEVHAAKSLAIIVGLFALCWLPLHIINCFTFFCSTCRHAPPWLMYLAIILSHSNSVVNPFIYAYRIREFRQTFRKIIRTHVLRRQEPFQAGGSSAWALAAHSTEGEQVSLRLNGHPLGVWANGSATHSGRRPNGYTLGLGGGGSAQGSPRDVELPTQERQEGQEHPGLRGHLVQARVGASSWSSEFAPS

Row | Compound | Ki (human A2A AR [1]) [µM] | Ki (human A1 AR [2]) [µM] | inhibition at 10 µM (recombinant human MAO-B; at 10,000 nM (10 μM), read-out: % inhibition at indicated concentration, Human MAO-B) [%] | IC50 (recombinant human MAO-B; n = 3, read-out: IC50 ± SEM, Human MAO-B) [µM] | Ki (human A1 AR [3]) [µM] | Ki (rat A1 AR) [µM] | inhibition at 10 µM (human A2B AR) [%] | % inhibition of radioligand binding at indicated concentration, A2A vs. [^3H]MSX-2 (rat A2A AR; at 1,000 nM) [%] | Ki (rat A2A AR; rat brain striatum, n = 3, read-out: Ki ± SEM, A2A vs. [^3H]MSX-2) [µM] | inhibition at 10 µM (recombinant human MAO-A; at 10,000 nM, read-out: % inhibition at indicated concentration, Human MAO-A) [%] | IC50 (recombinant human MAO-A; n = 3, read-out: IC50 ± SEM, Human MAO-A) [µM] | % inhibition of radioligand binding at indicated concentration, A2A vs. [^3H]MSX-2 (human A2A AR [4]) [%]
1 | 1,3-Dimethyl-6,7,8,9-tetrahydropyrazino[2,1-f ]purine-2,4(1H,3H)-dione [Compound 10c] | 0.094 | 0.116 | – | – | – | – | – | – | – | – | – | –
2 | Cn1c(=O)c2c(nc3n2CCCN3Cc2ccccc2)n(C)c1=O [Compound 9a] | 0.253 | 0.249 | – | – | – | – | – | – | – | – | – | –
3 | CCn1c(=O)c2c(nc3n2CCN(Cc2cccc(Cl)c2)C3)n(C)c1=O [Compound 14i, 8-(3-chlorobenzyl)-3-ethyl-1-methyl-6,7,8,9-tetrahydropyrazino[2,1-f]purine-2,4(1H,3H)-dione] | – | – | > 50 | ≤ 10 | 0.121 ± 0.045 | 0.053 ± 0.0058 | 36 | 33 | > 1 | 20 | > 10 | 8
